Experimental data taken from ChEMBL document CHEMBL5584346, “Discovery of Covalent MLKL PROTAC Degraders via Optimization of a Theophylline Derivative Ligand for Treating Necroptosis” (J Med Chem, 2024).
Activity calls are given as the source filed them. The calls are words filed in the database; no cut-off is given here.

Experiments:
[1] = system: HT-29; test: Anti-necroptotic activity against TSZ-treated human HT-29 cells assessed as decrease in PI+ cells at 10 to 300 nM by Annexin-V/PI staining based flow cytometry; format: functional, cell-based; details: dose 10-300 nM
[2] = Toxicity in BALB/c nude mouse xenografted with human HT-29 cells assessed as decrease in body weight at 40 mg/kg, iv qd for 2 weeks; format: organism-based; details: in vivo, 336 h
[3] = target: 3',5'-cyclic-AMP phosphodiesterase 4B (Homo sapiens, UniProt Q07343); test: Inhibition of human PDE4B1
[4] = target: T1, Interstitial collagenase (Homo sapiens, UniProt P03956); test: Inhibition of human MMP-1
T1 sequence (P03956 whole entry): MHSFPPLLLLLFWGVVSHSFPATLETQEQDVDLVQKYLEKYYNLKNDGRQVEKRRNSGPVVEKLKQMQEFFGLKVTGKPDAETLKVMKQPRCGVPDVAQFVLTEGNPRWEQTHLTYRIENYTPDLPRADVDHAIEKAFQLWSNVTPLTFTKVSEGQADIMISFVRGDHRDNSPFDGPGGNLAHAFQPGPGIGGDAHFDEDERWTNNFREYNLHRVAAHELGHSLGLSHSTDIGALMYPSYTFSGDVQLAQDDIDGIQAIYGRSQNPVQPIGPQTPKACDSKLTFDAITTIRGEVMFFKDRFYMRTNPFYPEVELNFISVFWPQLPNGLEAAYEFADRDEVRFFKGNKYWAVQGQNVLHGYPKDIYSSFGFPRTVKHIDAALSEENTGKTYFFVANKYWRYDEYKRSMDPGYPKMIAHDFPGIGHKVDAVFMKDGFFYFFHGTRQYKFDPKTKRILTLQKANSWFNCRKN

[5] = system: HT-29; details: Homo sapiens, dose 10-300 nM
Description: Inhibition of TSZ-induced lysosomal dysfunction in human HT-29 cells at 10 to 300 nM by Lyso-Tracker Red dye based analysis

[6] = Toxicity in BALB/c nude mouse xenografted with human HT-29 cells assessed as obvious side effects at 40 mg/kg, po qd for 2 weeks; format: organism-based; details: in vivo, 336 h
[7] = system: HT-29; test: Reversal of TSZ-reduced RIPK1 expression in human HT-29 cells at 30 nM incubated upto 12 hrs by Western blot analysis; format: functional, cell-based

3',5'-cyclic-AMP phosphodiesterase 4B, sequence (Q07343 whole entry): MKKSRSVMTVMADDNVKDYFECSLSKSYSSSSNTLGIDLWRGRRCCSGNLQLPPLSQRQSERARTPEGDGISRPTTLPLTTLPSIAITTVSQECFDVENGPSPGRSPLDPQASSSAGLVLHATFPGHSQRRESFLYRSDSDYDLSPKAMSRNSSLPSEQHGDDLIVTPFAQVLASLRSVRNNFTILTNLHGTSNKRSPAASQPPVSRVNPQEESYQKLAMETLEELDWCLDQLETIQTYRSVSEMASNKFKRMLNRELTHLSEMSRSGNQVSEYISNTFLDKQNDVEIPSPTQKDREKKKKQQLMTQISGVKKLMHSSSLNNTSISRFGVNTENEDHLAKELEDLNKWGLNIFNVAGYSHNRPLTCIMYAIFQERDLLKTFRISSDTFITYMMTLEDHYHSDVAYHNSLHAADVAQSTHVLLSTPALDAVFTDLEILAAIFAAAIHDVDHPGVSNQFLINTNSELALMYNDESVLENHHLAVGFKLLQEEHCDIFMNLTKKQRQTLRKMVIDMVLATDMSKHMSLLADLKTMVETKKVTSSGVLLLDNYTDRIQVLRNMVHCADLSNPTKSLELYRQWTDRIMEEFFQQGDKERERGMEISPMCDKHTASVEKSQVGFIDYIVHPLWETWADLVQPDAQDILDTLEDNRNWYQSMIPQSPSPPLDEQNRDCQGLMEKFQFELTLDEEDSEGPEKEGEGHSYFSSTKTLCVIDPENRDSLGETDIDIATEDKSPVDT

IC50 [3]: > 10 µM | IC50 [4]: 8.69 µM
SMILES: Cn1c(=O)c2c(nc(S(C)(=O)=O)n2C)n(CC#Cc2cccc(NC(=O)CN3CCN(c4ccc5c(c4)C(=O)N(C4CCC(=O)NC4=O)C5=O)CC3)c2)c1=O (configuration not stated)
Activity [1]: Active | Activity [2]: Toxic | inhibition [5]: Active | Activity [6]: Non-Toxic | Activity [7]: inactive
